Assay results as given in ChEMBL document CHEMBL1201862, “PubChem BioAssay data set” (2004).
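Five concentrations, 48 hours, 96-well plates. GI50 marks 50% less growth.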 Activity calls are given as the source filed them. Cut-off read from the data, not from the text of the source: active = GI50 up to about 1.1 µM and inactive = higher.

How the values were obtained:
Experiment in all cases: DTP human tumour cell line panel, 48 h
[1] = system: A498
[2] = system: COLO 205
[3] = system: DU-145
[4] = system: HOP-62
[5] = system: HOP-92
[6] = system: HT-29
[7] = system: KM12
[8] = system: MCF7
[9] = system: MDA-MB-231
[10] = system: MOLT-4
[11] = system: Malme-3M
[12] = system: NCI-H522
[13] = system: PC-3
[14] = system: RXF 393
[15] = system: SF-295
[16] = system: SK-MEL-5
[17] = system: SK-OV-3
[18] = system: U-251
[19] = system: UO-31
[20] = system: HCC 2998

Measured: GI50

N/C(=N\c1ccc(Cl)cc1)NS(=O)(=O)c1c(C(F)(F)F)cccc1C(F)(F)F
inactive: [1] 17.8 µM | [2] 11.1 µM | [3] 46.5 µM | [4] 24 µM | [5] 16.7 µM | [6] 19.8 µM | [7] 4.89 µM | [8] 15.6 µM | [9] 22.2 µM | [10] > 100 µM | [11] 17.4 µM | [12] 10.1 µM | [13] 5.45 µM | [14] 45.8 µM | [15] 7.85 µM | [16] 17.5 µM | [17] 35.2 µM | [18] 13.5 µM | [19] 2.29 µM

S=C(Nc1ccc2c(c1)oc1ccccc12)c1cccs1
inactive: [1] > 100 µM | [2] > 100 µM | [3] 40.8 µM | [20] > 100 µM | [4] 25.4 µM | [5] 53.5 µM | [6] 3.66 µM | [8] 24.1 µM | [9] 21.7 µM | [10] > 100 µM | [12] 20.8 µM | [13] > 100 µM | [14] 27.9 µM | [15] 16.6 µM | [16] > 100 µM | [17] 37.9 µM | [18] 30.5 µM | [19] > 100 µM

N#CC(C#N)=Cc1c[nH]c(=O)[nH]c1=O
inactive: [1] > 100 µM | [2] > 100 µM | [3] > 100 µM | [4] > 100 µM | [5] > 100 µM | [6] > 100 µM | [7] > 100 µM | [8] > 100 µM | [9] > 100 µM | [10] 43.1 µM | [11] 6.35 µM | [12] 41 µM | [13] > 100 µM | [14] > 100 µM | [15] > 100 µM | [16] > 100 µM | [17] > 100 µM | [18] > 100 µM | [19] > 100 µM

CC(C)(O)C1COC2=C1C(=O)c1ccccc1C2=O (stereo not given)
inactive: [1] > 100 µM | [2] 82 µM | [3] 20.9 µM | [20] > 100 µM | [5] 27.5 µM | [6] 44.4 µM | [7] 88.3 µM | [8] 20.3 µM | [9] 38.7 µM | [10] 25.6 µM | [12] 47.1 µM | [13] 31.6 µM | [15] 42.5 µM | [16] 22.3 µM | [17] > 100 µM | [18] 58.5 µM | [19] 81.1 µM

O=C1O/C(=C\c2ccccc2)N(c2ccccc2)C1=O
inactive: [1] > 100 µM | [2] > 100 µM | [3] > 100 µM | [20] > 100 µM | [4] > 100 µM | [5] > 100 µM | [6] > 100 µM | [7] > 100 µM | [8] 51.8 µM | [9] > 100 µM | [10] > 100 µM | [12] > 100 µM | [13] > 100 µM | [14] > 100 µM | [16] > 100 µM | [17] > 100 µM | [18] > 100 µM | [19] > 100 µM

C#CCNC(Cc1c[nH]cn1)C(=O)O (stereo not given)
inactive: [1] > 100 µM | [2] > 100 µM | [3] > 100 µM | [4] > 100 µM | [5] > 100 µM | [6] > 100 µM | [7] > 100 µM | [8] > 100 µM | [9] > 100 µM | [10] > 100 µM | [11] > 100 µM | [12] > 100 µM | [13] > 100 µM | [14] > 100 µM | [15] > 100 µM | [16] > 100 µM | [17] > 100 µM | [18] > 100 µM | [19] > 100 µM
